Data published in ChEMBL document CHEMBL5150075 (J Med Chem, 2022).
Activity calls are given as the source filed them. No cut-off for these calls is given here.

Experiments:
[1] = Stability in dog liver microsomes assessed as half life incubated in presence of NADPH by LC-MS/MS analysis; format: ADME, Canis lupus familiaris, Microsome
[2] = Mutagenicity in Salmonella typhimurium TA-102 at 0.5 to 500 ug per plate incubated for 72 hrs in presence or absence of S9 fraction by Ames test; format: toxicity, Salmonella enterica subsp. enterica serovar Typhimurium; settings: in vivo, dose 0.5-500 µg
NCI-H1299 [3] = assay: Antitumor activity against human NCI-H1299 cells xenografted in BALB/c nude mouse assessed as suppression of tumor growth at 10 mg/kg, po administered once daily and measured twice a week relative to control; format: functional
MCF7R = assay: Antiproliferative activity against paclitaxel-resistant human MCF7R cells assessed as inhibition of cell growth incubated for 72 hrs by MTT assay; format: functional, cell-based; settings: read-out: IC50
[4] = Toxicity in specific pathogen-free Kunming mouse assessed as pathological changes in kidney at 10 mg/kg, po administered once daily and measured after 7 days by hematoxylin and eosin staining based analysis; format: organism-based; settings: in vivo, 168 h, time 7 day
BGC-823 = assay: Antiproliferative activity against human BGC-823 cells assessed as inhibition of cell growth incubated for 72 hrs by MTT assay; format: functional, cell-based; settings: BGC-823, 72 h
[5] = Resistance index, ratio of IC50 for antiproliferative activity against paclitaxel-resistant human MCF7R cells to IC50 for antiproliferative activity against human MCF7 cells; format: functional
DU-145 [6] = assay: Induction of apoptosis in human DU-145 cells assessed as dead cells at 0.1 uM incubated for 48 hrs by Annexin V-FITC/PI staining based flow cytometry analysis (reference value: 1.05%); format: functional
[7] = Selectivity index, ratio of IC50 for cytotoxicity against African green monkey Vero cells to IC50 for antiproliferative activity against human DU-145 cells; format: toxicity, cell-based; settings: Vero cells and DU-145 cells, read-out: Ratio IC50
[8] = Stability in human liver microsomes assessed as half life incubated in presence of NADPH by LC-MS/MS analysis; format: ADME, Microsome
DU-145 [9] = assay: Induction of apoptosis in human DU-145 cells assessed as increase in cleaved PARP level at 0.003 to 0.3 uM incubated for 48 hrs by Western blot analysis; format: functional, cell-based; settings: dose 0.003-0.3 µM
HGC-27 = assay: Antiproliferative activity against human HGC-27 cells assessed as inhibition of cell growth incubated for 72 hrs by MTT assay; format: functional, cell-based; settings: HGC-27, 72 h
NCI-H1299 [10] = assay: Antiproliferative activity against human NCI-H1299 cells assessed as inhibition of cell growth incubated for 72 hrs by MTT assay; format: functional, cell-based; settings: NCI-H1299, 72 h
[11] = Cmax in Kunming mouse at 20 mg/kg, po by LC-MS/MS analysis; format: ADME, organism-based; parameters: dose 20 mg/kg, route po; settings: in vivo
B16-F10 [12] = assay: Antiproliferative activity against mouse B16-F10 cells assessed as inhibition of cell growth incubated for 72 hrs by MTT assay; format: functional, cell-based; settings: B16-F10, 72 h
[13] = target: L-type calcium channel alpha-1c/beta-2/alpha2delta-1 (Homo sapiens, UniProt P54289+Q08289+Q13936); assay: Inhibition of human alpha1c/beta2a/alpha2delta1 Cav1.2 expressed in HEK293 cells assessed as effect on calcium flux by FLIPR analysis; format: toxicity, cell-based
Chain of L-type calcium channel alpha-1c/beta-2/alpha2delta-1 (P54289 25-956 limits assumed): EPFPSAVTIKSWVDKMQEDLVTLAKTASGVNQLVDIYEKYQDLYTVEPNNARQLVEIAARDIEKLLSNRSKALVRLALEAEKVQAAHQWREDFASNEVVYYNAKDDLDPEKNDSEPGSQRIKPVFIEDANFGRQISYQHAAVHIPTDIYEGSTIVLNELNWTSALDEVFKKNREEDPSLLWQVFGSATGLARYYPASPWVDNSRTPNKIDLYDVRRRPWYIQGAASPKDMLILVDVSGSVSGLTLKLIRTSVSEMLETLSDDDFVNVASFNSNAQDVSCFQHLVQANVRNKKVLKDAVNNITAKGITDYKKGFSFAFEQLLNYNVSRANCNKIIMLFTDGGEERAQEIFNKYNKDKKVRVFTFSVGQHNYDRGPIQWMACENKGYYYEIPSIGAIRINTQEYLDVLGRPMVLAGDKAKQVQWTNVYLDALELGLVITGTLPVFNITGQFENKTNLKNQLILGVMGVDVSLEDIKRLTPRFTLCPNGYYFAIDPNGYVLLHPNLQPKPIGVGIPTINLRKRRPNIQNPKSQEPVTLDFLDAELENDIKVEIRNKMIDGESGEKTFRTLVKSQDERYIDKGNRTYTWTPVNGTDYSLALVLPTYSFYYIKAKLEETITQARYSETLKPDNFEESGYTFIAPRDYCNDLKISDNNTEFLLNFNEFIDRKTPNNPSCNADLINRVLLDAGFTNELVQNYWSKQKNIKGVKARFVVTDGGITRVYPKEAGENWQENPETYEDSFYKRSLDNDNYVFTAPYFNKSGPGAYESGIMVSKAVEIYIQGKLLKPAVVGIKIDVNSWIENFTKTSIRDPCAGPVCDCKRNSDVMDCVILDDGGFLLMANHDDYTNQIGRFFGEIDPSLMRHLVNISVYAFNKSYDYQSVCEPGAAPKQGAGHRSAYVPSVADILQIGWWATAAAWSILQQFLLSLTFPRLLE
Chain of L-type calcium channel alpha-1c/beta-2/alpha2delta-1 (P54289 957-1103 limits assumed): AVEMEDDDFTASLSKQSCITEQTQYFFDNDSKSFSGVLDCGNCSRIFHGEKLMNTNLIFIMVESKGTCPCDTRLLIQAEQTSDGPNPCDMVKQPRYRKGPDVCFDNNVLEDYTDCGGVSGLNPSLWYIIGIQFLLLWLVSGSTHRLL
Chain of L-type calcium channel alpha-1c/beta-2/alpha2delta-1 (Q08289 whole entry): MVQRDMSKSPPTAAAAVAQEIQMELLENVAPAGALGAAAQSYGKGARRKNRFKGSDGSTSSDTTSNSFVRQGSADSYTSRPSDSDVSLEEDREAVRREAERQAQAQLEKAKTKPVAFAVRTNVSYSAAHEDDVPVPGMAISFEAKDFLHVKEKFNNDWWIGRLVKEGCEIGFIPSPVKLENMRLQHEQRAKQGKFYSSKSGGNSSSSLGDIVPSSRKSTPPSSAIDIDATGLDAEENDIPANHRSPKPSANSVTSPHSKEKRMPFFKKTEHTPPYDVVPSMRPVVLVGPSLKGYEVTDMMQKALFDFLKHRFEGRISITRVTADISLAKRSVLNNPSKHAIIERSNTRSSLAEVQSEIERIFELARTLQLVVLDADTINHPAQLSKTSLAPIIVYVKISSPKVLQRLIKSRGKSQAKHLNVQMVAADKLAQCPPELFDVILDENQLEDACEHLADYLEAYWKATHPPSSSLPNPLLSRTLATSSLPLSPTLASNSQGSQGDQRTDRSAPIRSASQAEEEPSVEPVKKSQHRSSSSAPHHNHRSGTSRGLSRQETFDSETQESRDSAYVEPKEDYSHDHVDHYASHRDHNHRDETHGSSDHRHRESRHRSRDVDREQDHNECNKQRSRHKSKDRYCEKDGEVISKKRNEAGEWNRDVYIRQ
Chain of L-type calcium channel alpha-1c/beta-2/alpha2delta-1 (Q13936 whole entry): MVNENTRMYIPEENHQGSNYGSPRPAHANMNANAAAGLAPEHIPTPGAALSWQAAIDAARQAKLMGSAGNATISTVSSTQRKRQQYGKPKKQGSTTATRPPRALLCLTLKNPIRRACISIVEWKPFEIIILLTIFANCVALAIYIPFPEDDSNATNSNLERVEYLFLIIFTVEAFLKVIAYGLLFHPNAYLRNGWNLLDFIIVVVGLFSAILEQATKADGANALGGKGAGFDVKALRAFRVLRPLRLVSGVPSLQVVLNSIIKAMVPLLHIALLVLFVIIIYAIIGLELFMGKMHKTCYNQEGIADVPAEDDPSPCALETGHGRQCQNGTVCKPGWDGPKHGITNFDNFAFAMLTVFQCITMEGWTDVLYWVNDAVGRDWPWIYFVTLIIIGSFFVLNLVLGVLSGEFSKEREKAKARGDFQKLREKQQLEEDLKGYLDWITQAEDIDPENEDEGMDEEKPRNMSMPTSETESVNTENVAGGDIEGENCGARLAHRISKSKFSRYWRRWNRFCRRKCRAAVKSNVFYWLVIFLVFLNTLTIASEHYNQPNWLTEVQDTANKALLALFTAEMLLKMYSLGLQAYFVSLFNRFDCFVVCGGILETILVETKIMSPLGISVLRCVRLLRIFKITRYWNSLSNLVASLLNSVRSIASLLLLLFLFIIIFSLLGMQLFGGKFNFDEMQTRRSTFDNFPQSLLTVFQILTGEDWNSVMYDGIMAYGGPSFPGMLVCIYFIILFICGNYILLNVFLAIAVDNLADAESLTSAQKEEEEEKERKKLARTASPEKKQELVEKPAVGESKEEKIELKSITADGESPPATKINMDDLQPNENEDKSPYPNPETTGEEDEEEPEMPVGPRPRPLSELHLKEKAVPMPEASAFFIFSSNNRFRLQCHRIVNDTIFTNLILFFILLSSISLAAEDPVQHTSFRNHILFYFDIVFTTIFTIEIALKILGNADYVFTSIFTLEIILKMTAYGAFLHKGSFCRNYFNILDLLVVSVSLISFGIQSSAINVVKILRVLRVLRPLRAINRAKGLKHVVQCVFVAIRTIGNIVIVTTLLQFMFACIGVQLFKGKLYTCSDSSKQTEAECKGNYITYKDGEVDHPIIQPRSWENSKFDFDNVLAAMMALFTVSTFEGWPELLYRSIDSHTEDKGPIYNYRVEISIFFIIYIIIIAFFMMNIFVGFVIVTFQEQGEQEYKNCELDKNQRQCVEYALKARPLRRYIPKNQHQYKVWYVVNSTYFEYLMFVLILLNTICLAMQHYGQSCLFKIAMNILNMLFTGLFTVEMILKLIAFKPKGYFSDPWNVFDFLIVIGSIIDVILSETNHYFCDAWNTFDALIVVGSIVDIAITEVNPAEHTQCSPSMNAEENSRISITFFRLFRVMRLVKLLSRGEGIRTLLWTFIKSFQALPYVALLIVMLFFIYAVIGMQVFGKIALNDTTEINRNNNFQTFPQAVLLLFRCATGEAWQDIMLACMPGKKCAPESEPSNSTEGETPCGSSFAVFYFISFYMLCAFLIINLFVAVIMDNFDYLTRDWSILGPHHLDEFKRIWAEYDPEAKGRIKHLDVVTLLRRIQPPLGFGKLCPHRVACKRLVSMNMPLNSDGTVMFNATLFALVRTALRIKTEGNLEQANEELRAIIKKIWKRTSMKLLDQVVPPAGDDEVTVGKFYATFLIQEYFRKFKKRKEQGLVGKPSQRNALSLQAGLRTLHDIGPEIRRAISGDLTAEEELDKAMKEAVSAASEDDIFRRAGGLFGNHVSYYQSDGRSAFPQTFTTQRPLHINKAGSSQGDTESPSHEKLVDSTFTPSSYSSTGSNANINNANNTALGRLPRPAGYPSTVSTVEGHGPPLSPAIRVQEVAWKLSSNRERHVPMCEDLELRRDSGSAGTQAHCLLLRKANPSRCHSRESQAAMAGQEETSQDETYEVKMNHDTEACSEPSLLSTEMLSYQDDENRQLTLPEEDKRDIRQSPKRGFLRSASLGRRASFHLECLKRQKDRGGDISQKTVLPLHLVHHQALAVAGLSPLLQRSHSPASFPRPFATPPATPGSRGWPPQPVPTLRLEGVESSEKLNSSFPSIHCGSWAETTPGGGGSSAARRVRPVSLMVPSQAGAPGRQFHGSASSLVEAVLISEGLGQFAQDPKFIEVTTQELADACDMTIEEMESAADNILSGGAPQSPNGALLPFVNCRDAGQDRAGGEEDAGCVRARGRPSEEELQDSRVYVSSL

DU-145 [14] = assay: Induction of apoptosis in human DU-145 cells assessed as dead cells at 0.03 uM incubated for 48 hrs by Annexin V-FITC/PI staining based flow cytometry analysis (reference value: 1.05%); format: functional
DU-145 [15] = assay: Antiproliferative activity against human DU-145 cells assessed as inhibition of cell growth incubated for 96 hrs by real-time cell analysis; format: functional, cell-based; settings: DU-145, 96 h
DU-145 [16] = assay: Induction of apoptosis in human DU-145 cells assessed as late apoptotic cells at 0.03 uM incubated for 48 hrs by Annexin V-FITC/PI staining based flow cytometry analysis (reference value: 2.05%); format: functional
DU-145 [17] = assay: Induction of G2/M phase cell cycle arrest in human DU-145 cells assessed as increase in cyclin B1 expression at 0.03 to 0.3 uM measured after 12 hrs by Western blot analysis; format: functional, cell-based; settings: dose 0.03-0.3 µM
DU-145 [18] = assay: Induction of apoptosis in human DU-145 cells assessed as live cells at 0.03 uM incubated for 48 hrs by Annexin V-FITC/PI staining based flow cytometry analysis (reference value: 94.94%); format: functional
DU-145 [19] = assay: Antiproliferative activity against human DU-145 cells assessed as inhibition of cell growth incubated for 24 hrs by real-time cell analysis; format: functional, cell-based; settings: DU-145, 24 h
HCT-116 = assay: cells; settings: Homo sapiens, HCT-116, 72 h
Description: Antiproliferative activity against human HCT-116 cells assessed as inhibition of cell growth incubated for 72 hrs by MTT assay

Tubulin (Homo sapiens) [20] = target: T1, Tubulin (Homo sapiens) (UniProt P68371+Q9H4B7+P0DPH7+P68366+Q13509+Q71U36+P04350+Q3ZCM7+P07437+P68363+Q9BQE3+Q6PEY2+Q13885+Q9BVA1+Q9BUF5); assay: Inhibition of tubulin polymerization in human DU-145 cells assessed as inhibition of tubulin assembly at 0.1 uM incubated for 16 hrs by Hoechst staining based confocal microscopy analysis; format: cell-based
B16-F10 [21] = assay: Antitumor activity against mouse B16-F10 cells implanted in C57BL/6 mouse assessed as tumor growth inhibition at 20 mg/kg, po administered once daily and measured twice a week relative to control; format: functional; settings: read-out: TGI
DU-145 [22] = assay: Antiproliferative activity against human DU-145 cells assessed as inhibition of cell growth incubated for 72 hrs by MTT assay; format: functional, cell-based; settings: DU-145, 72 h
[23] = Half life in Kunming mouse at 2 mg/kg, iv by LC-MS/MS analysis; format: ADME, organism-based; settings: in vivo
[24] = Toxicity in BALB/c nude mouse xenografted with human NCI-H1299 cells assessed as reduction in body weight at 10 to 20 mg/kg, po administered once daily and measured twice a week; format: organism-based; settings: in vivo, dose 10-20 mg/kg
HCT-8 = assay: Antiproliferative activity against human HCT-8 cells assessed as inhibition of cell growth incubated for 72 hrs by MTT assay; format: functional, cell-based; settings: HCT-8, 72 h
DU-145 [25] = assay: Antiproliferative activity against human DU-145 cells assessed as inhibition of cell growth incubated for 48 hrs by real-time cell analysis; format: functional, cell-based; settings: DU-145, 48 h
[26] = Toxicity in BALB/c nude mouse xenografted with human DU-145 cells assessed as reduction in body weight at 10 mg/kg, po administered once daily and measured twice a week; format: organism-based; parameters: scale not given: the % may be the effect or the level left; settings: in vivo
Tubulin (Homo sapiens) [27] = target: T1, Tubulin (Homo sapiens); assay: Disruption of microtubule network in human DU-145 cells assessed as reduction in acetyl-alpha tubulin expression by Western blot analysis; format: cell-based; settings: dose 0.03-0.3 µM
Tubulin (Homo sapiens) [28] = target: T1, Tubulin (Homo sapiens); assay: Inhibition of [3H]colchicine binding to tubulin (unknown origin) at 1 uM incubated for 2 hrs by TopCount scintillation counting method relative to control; format: protein-complex assay
A549 = assay: Antiproliferative activity against paclitaxel-resistant human A549 cells assessed as inhibition of cell growth incubated for 72 hrs by MTT assay; format: functional, cell-based; settings: A549, 72 h
DU-145 [29] = assay: Induction of G2/M phase cell cycle arrest in human DU-145 cells assessed as decrease in Cdc2 phosphorylation at T14/Y15 residue at 0.03 to 0.3 uM measured after 12 hrs by Western blot analysis; format: functional, cell-based; settings: dose 0.03-0.3 µM
[30] = Mutagenicity in Salmonella typhimurium TA-1535 at 0.5 to 500 ug per plate incubated for 72 hrs in presence or absence of S9 fraction by Ames test; format: toxicity, Salmonella enterica subsp. enterica serovar Typhimurium; settings: in vivo, dose 0.5-500 µg

For `Cc1ccc(S(=O)(=O)Nc2cc(C(=O)NCc3ccc(C)nc3)ccc2C)cc1`, the half-life [1] was 132 min, the Activity [2] was “Non-Toxic” and the Activity (NCI-H1299 [3]) was 48.8%. For the same compound, the IC50 (MCF7R) was 14 nM, the Activity [4] was “Non-Toxic” and the IC50 (BGC-823) was 21 nM. For the same compound, the “Ratio IC50” value [5] was 2.48, the Activity (DU-145 [6]) was 5.08% and the selectivity ratio [7] was 4. For the same compound, the half-life [8] was 24 min, the Activity (DU-145 [9]) was “Active” and the IC50 (HGC-27) was 6 nM. The IC50 (NCI-H1299 [10]) was 4 nM, the Cmax [11] was 2740 ng/mL and the IC50 (B16-F10 [12]) was 2 nM. The IC50 [13] was over 30000 nM, the Activity (DU-145 [14]) was 2.95% and the IC50 (DU-145 [15]) was 4 nM. The Activity (DU-145 [16]) was 9.5%, the Activity (DU-145 [17]) was “Active” and the Activity (DU-145 [18]) was 73.88%. The IC50 (DU-145 [19]) was 10 nM, the IC50 (HCT-116) was 4 nM and the inhibition (Tubulin (Homo sapiens) [20]) was “Active”. It also gave an inhibition in vivo at 20 mg/kg (B16-F10 [21]) of 70.6%, an IC50 (DU-145 [22]) of 8 nM and a half-life [23] of 10.8 min. The Activity [24] was “Toxic”, the IC50 (HCT-8) was 22 nM and the IC50 (DU-145 [25]) was 10 nM. For the same compound, the Activity [26] was 3.5%, the Activity (Tubulin (Homo sapiens) [27]) was “Active” and the inhibition (Tubulin (Homo sapiens) [28]) was 75%. The IC50 (A549) was 30 nM, the Activity (DU-145 [29]) was “Active” and the Activity [30] was “Non-Toxic”.
